21 compounds from PubChem BioAssay (NCI) can be followed below.

Test systems include 786-0 renal; HL-60(TB) leukemia; HOP-92 NSCLC; M14 melanoma; NCI-H23 lung; NCI-H522 lung; SK-MEL-5 melanoma; SW-620 colon; SN12C renal; K-562 leukemia.
Holding throughout (experiment): inhibition of tumour cell growth, NCI panel, 48 h

Values joined by “and” are separate entries in the source; they are usually repeats but may differ in a detail not shown here. Equal entries are not always repeated.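 Interpolation was linear, between the two tested concentrations surrounding the appropriate level; five concentrations were tested over 48 hours in 96-well plates. GI50 marks 50% less growth. TGI is the concentration that stops growth completely.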

With `O=C(NC1(C(=O)NNc2nnc(-c3ccccc3)c(-c3ccccc3)n2)C(c2ccccc2)C(c2ccccc2)=NN1c1ccccc1)c1ccccc1` (configuration not stated), the TGI in the assay with 786-0 renal, with HL-60(TB) leukemia, in the assay on HOP-92 NSCLC, in the assay on M14 melanoma, in the assay on NCI-H23 lung and in the assay with NCI-H522 lung was above 100 µM each time. The TGI with SK-MEL-5 melanoma and with SW-620 colon was above 100 µM throughout.

As to `CCOC(=O)c1c2c(n(-c3ccc(OC)cc3)c1C)C(=O)C(=O)c1ccccc1-2`, the TGI in the assay with 786-0 renal was 3.5 µM; in the assay with HOP-92 NSCLC, 3.98 µM; in the assay on M14 melanoma, 3.17 µM; in the assay with NCI-H23 lung, 3.24 µM; in the assay on NCI-H522 lung, above 20.4 µM; in the assay with SK-MEL-5 melanoma, 2.59 µM. Besides, the TGI in the assay with SN12C renal was found to be 3.19 µM; with SW-620 colon, 8.09 µM.

With `COc1ccc(/C=C(\C(=C/c2ccc(OC)cc2)[N+](=O)[O-])[N+](=O)[O-])cc1`, the TGI is 4.96 µM with 786-0 renal; 10 µM in the assay on HOP-92 NSCLC; above 34.5 µM with K-562 leukemia; 18.2 µM in the assay with M14 melanoma; 16 µM in the assay with NCI-H23 lung; 8.8 µM in the assay with NCI-H522 lung. Further, the TGI was determined as 15.9 µM in the assay on SK-MEL-5 melanoma, 10.1 µM in the assay on SN12C renal and 7.87 µM in the assay with SW-620 colon.

`S=c1nc2[nH]c3ccc(Br)cc3c2n[nH]1`: the TGI was above 100 µM in the assay with 786-0 renal; 50.5 µM with HL-60(TB) leukemia; above 100 µM in the assay on HOP-92 NSCLC; above 100 µM in the assay with K-562 leukemia; above 100 µM in the assay on M14 melanoma; above 100 µM in the assay on NCI-H522 lung. In addition, the TGI with SK-MEL-5 melanoma, with SN12C renal and with SW-620 colon was above 100 µM each time.

Regarding `Cc1cn(CC2=NCCCN2)c(=O)[nH]c1=O`, the TGI with 786-0 renal, in the assay with HOP-92 NSCLC, with K-562 leukemia, with M14 melanoma, in the assay on NCI-H23 lung and in the assay with NCI-H522 lung was above 100 µM each time. Further, the TGI with SK-MEL-5 melanoma, in the assay with SN12C renal and with SW-620 colon was above 100 µM in each case.

Turning to `COc1ccc(Oc2nc3ccc(C(F)(F)F)cc3nc2-c2ccccc2)cc1`, the TGI in the assay with 786-0 renal, with HL-60(TB) leukemia, in the assay on HOP-92 NSCLC, in the assay on K-562 leukemia, in the assay on NCI-H522 lung and in the assay on SK-MEL-5 melanoma was above 100 µM each time. In addition, the TGI in the assay on SN12C renal and in the assay with SW-620 colon was above 100 µM throughout.

Take `CSc1nc(NC2OCC(O)C(O)C2O)c(N)c(=O)n1C` (configuration not stated): the TGI in the assay on HL-60(TB) leukemia, in the assay with HOP-92 NSCLC, in the assay on K-562 leukemia, in the assay on NCI-H23 lung, in the assay with NCI-H522 lung and with SK-MEL-5 melanoma was above 100 µM throughout. In addition, the TGI in the assay on SN12C renal and in the assay with SW-620 colon was above 100 µM in each case.

Turning to `C=C(CC(=O)Nc1ccc(C(=O)OC)o1)C(=O)OC`, the TGI with 786-0 renal was 39.6 µM; in the assay with HOP-92 NSCLC, above 100 µM; with M14 melanoma, 36.1 µM; with NCI-H23 lung, 72.7 µM; in the assay with NCI-H522 lung, 38 µM; in the assay on SK-MEL-5 melanoma, 43.1 µM. For the same compound, the values for the TGI in the assay on SN12C renal and with SW-620 colon were 45.2 µM and 53.5 µM, respectively.

With `CC(=O)OCc1cc(=O)n(C)c2c3c4c(cc12)c(C)cc(=O)n4CO3`, the TGI in the assay on HL-60(TB) leukemia amounted to 16.2 µM; with HOP-92 NSCLC it was 10 µM; in the assay on K-562 leukemia, 27.7 µM; in the assay with NCI-H23 lung it was 5.01 µM; with NCI-H522 lung, 2.16 µM; with SK-MEL-5 melanoma it was 4.18 µM. For the same compound, the TGI came to 30.8 µM with SN12C renal and 15.6 µM in the assay with SW-620 colon.

In the case of `CCN(CC)C(=S)N/N=C/c1ccccn1`, the TGI with 786-0 renal was 19 µM; with HL-60(TB) leukemia it was 4.09 µM; in the assay on HOP-92 NSCLC, 2.44 µM; in the assay on K-562 leukemia it was above 100 µM; in the assay with M14 melanoma, 0.349 µM; in the assay on NCI-H522 lung it was 1.53 µM. In addition, the TGI with SK-MEL-5 melanoma was 0.542 µM; in the assay on SW-620 colon, above 100 µM.

As for `CCOC(=O)CCc1c(C(=O)OCC)[nH]c(/C=C2\NC(=O)C(C)=C2CC)c1C`, the TGI in the assay on 786-0 renal was 27.5 µM; in the assay on HL-60(TB) leukemia, above 100 µM; in the assay with HOP-92 NSCLC, 45.1 µM; with K-562 leukemia it was above 100 µM; with M14 melanoma, above 100 µM; in the assay with NCI-H522 lung it was 30.7 µM. The TGI in the assay on SN12C renal is above 100 µM.

Regarding `CC(C)(C)OC(=O)NC(Cc1ccc(O)cn1)C(N)=O` (configuration not stated), the TGI in the assay on 786-0 renal, in the assay on HL-60(TB) leukemia, with HOP-92 NSCLC, in the assay with NCI-H23 lung, in the assay with NCI-H522 lung and in the assay on SK-MEL-5 melanoma was above 100 µM throughout. In addition, the TGI in the assay on SN12C renal and in the assay on SW-620 colon was above 100 µM each time.

With `CC(=O)NC1C(OCc2ccccc2)OC(CO)C(O)C1OCC(=O)NC(C)C(=O)NC(CCC(=O)NCCCCCNc1c2ccccc2nc2cccc([N+](=O)[O-])c12)C(N)=O` (configuration not stated), the TGI in the assay on 786-0 renal is 0.000206 µM; in the assay on HL-60(TB) leukemia it was 0.0455 µM; with HOP-92 NSCLC it was 0.00311 µM; in the assay on K-562 leukemia, below 0.0001 µM; with M14 melanoma, below 0.0001 µM; in the assay on NCI-H522 lung it was 0.0045 µM. The figures for the TGI in the assay on SK-MEL-5 melanoma, with SN12C renal and with SW-620 colon were 0.00124 µM, below 0.0001 µM and 0.000315 µM, respectively.

With `OCC(O)C1OC2CC1Nc1ccccc1N2` (configuration not stated), the TGI in the assay with 786-0 renal, in the assay on HL-60(TB) leukemia, in the assay with HOP-92 NSCLC, in the assay on K-562 leukemia, in the assay on NCI-H23 lung and with NCI-H522 lung was above 100 µM each time. The TGI with SK-MEL-5 melanoma, in the assay with SN12C renal and with SW-620 colon was above 100 µM each time.

With `COC(=O)c1nc(-c2ccc3c(n2)C(=O)C(N)=C(OC)C3=O)c(N)c(-c2ccc(OC)c(OC)c2O)c1C`, the TGI came out at 6.32 µM with HL-60(TB) leukemia; 5.79 µM in the assay on HOP-92 NSCLC; 5.63 µM in the assay on K-562 leukemia; 1.38 µM with NCI-H23 lung; 2.43 µM with NCI-H522 lung; 1.96 µM with SK-MEL-5 melanoma. The values for the TGI in the assay on SN12C renal and with SW-620 colon were 2.69 µM and 6.88 µM, respectively.

Take `O=C(/C=C/c1ccc(-c2ccccc2)cc1)NCc1ccc(C(=O)NCCc2c[nH]c3ccccc23)cc1`: the TGI in the assay on 786-0 renal is 26.7 µM; in the assay with HOP-92 NSCLC, above 100 µM; in the assay with K-562 leukemia, 45.6 µM; with M14 melanoma, above 100 µM; in the assay on NCI-H23 lung it was above 100 µM; with NCI-H522 lung, above 100 µM. In addition, the figures for the TGI in the assay on SK-MEL-5 melanoma, in the assay on SN12C renal and in the assay with SW-620 colon were above 100 µM, 23.8 µM and above 100 µM, respectively.

Consider `CC(NC(=O)OCc1ccccc1)NC(=O)C(CC(=O)OC(C)(C)C)NC(=O)OC(C)(C)C` (configuration not stated), for which the TGI in the assay on 786-0 renal, in the assay with HOP-92 NSCLC, with K-562 leukemia, with M14 melanoma, in the assay on NCI-H23 lung and in the assay with NCI-H522 lung was above 100 µM in each case. For the same compound, the TGI with SK-MEL-5 melanoma, in the assay on SN12C renal and in the assay on SW-620 colon was above 100 µM in each case.

On to `N/N=C1/C(=N/O)CCc2nonc21`, for which the TGI in the assay on 786-0 renal, with HL-60(TB) leukemia, in the assay on HOP-92 NSCLC, in the assay with K-562 leukemia, with M14 melanoma and in the assay on NCI-H23 lung was above 100 µM in each case. Further, the TGI in the assay with SK-MEL-5 melanoma, in the assay with SN12C renal and in the assay on SW-620 colon was above 100 µM each time.

As for `CN(C)CCCNc1c2ccccc2nc2cccc([N+](=O)[O-])c12`, the TGI was 0.0058 µM and 0.0531 µM in the assay with 786-0 renal; 0.0721 µM in the assay with HL-60(TB) leukemia; 0.00435 µM with HOP-92 NSCLC; above 100 µM with K-562 leukemia; 0.00165 µM in the assay on M14 melanoma; below 0.001 µM with NCI-H522 lung. Moreover, the TGI is below 0.001 µM with SK-MEL-5 melanoma; 0.0137 µM and 0.0343 µM in the assay on SN12C renal. Besides, the GI50 in the assay on HL-60(TB) leukemia is 0.0175 µM.

With `CCOC(=O)c1c2c(n3ccc(NC(=O)OC(C)(C)C)cc13)C(=O)c1ncccc1C2=O`, the GI50 was 0.0256 µM in the assay on HL-60(TB) leukemia; 0.137 µM in the assay on HOP-92 NSCLC; 0.0445 µM in the assay with M14 melanoma; 0.147 µM in the assay on NCI-H23 lung; 0.179 µM in the assay with NCI-H522 lung; 0.174 µM with SK-MEL-5 melanoma. For the same compound, in the assay on SN12C renal, the GI50 is 0.071 µM. Moreover, the TGI in the assay with HL-60(TB) leukemia amounted to 0.38 µM; in the assay on HOP-92 NSCLC, 0.927 µM; in the assay on M14 melanoma it was 1.26 µM; in the assay with NCI-H23 lung it was 0.669 µM; with NCI-H522 lung it was 0.817 µM; in the assay with SK-MEL-5 melanoma, 0.388 µM. The TGI in the assay on SN12C renal was 1.21 µM.

Consider `CCNC(=O)/C=C/CCC#Cc1ccc(-c2ccc(-c3cccs3)s2)s1`, for which the TGI in the assay with 786-0 renal, in the assay on HL-60(TB) leukemia, in the assay with HOP-92 NSCLC, in the assay with M14 melanoma, in the assay with NCI-H23 lung and with NCI-H522 lung was above 100 µM throughout. Further, the TGI in the assay with SK-MEL-5 melanoma and in the assay on SW-620 colon was above 100 µM throughout.
